US7312219B2, “Heteroaromatic inhibitors of fructose 1,6-bisphosphatase” (Metabasis Therapeutics, Inc., priority 1998, dated 2007)
Structures can show the parent of a compound that is named as a salt. Where two headings read alike, the source gives them in different places.

Columns and labels:
Fasted Rats = assay: Blood Glucose Lowering Following Intravenous Administration to Fasted Rats; type: in vivo, rat; details: 18 h fasted Sprague Dawley rats, 1 hour, relative to saline-treated controls
Method: Inhibitors were disolved in water and the solution adjusted to neutrality with NaOH. Blood samples were obtained from the tail vein of conscious animals just prior to injection and after 1 hour. Blood glucose was measured using a HemoCue Inc. glucose analyzer according to the instructions of the manufacturer.

[1] = tested on: Gluconeogenesis in Rat Hepatocytes; assay: Inhibition of Gluconeogenesis in Rat Hepatocytes; type: cell-based; details: 10 mM lactate, 1 mM pyruvate, 1 hour incubation, read-out: IC50 Glucose Production
Method: Hepatocytes were prepared from overnight fasted Sprague-Dawley rats (250–300 g) according to the procedure of Berry and Friend (Berry, M. N., Friend, D. S., 1969, J. Cell. Biol. 43, 506–520) as modified by Groen (Groen, A. K., Sips, H. J., Vervoorn, R. C., Tager, J. M. , 1982, Eur. J. Biochem. 122, 87–93). Hepatocytes (75 mg wet weight/ml) were incubated in 1 ml Krebs-bicarbonate buffer containing 10 mM Lactate, 1 mM pyruvate, 1 mg/ml BSA, and test compound concentrations from 1 to 500 μM. Incubations were carried out in a 95% oxygen, 5% carbon dioxide atmosphere in closed, 50-ml Falcon tubes submerged in a rapidly shaking water bath (37° C.). After 1 hour, an aliquot (0.25 ml) was removed, transferred to an Eppendorf tube and centrifuged. 50 μl of supernatant was then assayed for glucose content using a Sigma Glucose Oxidase kit as per the manufacturer's instructions.

Fasted Rat = assay: Glucose Lowering Following Oral Administration to the Fasted Rat; type: in vivo; details: oral gavage, 18-hour fasted rats, relative to saline controls
Method: Compounds were administered by oral gavage to 18-hour fasted, Sprague Dawley rats (250–300 g, n =3/4/group). Phosphonic acids were prepared in deionized water, and the solution adjusted to neutrality with solidum hydroxide. Prodrugs were dissolved in polyethylene glycol (mw 400). […] The table below indicates the maximum glucose lowering achieved relative to control animals dosed with saline.

[2] = Estimation of the Oral Bioavailability of Phosphonic Acids and their Prodrugs; type: in vivo, rat; details: fasted rats, oral 10–50 mg/kg, 24 h urinary recovery of phosphonic acid, oral vs intravenous
Method: Phosphonic acids were dissolved in water, and the solution adjusted to neutrality with sodium hydroxide. Prodrugs were dissolved in 10% ethanol/90% polyethlene glycol (mw 400). Compound was administered by oral gavage to 18-hour fasted Sprague-Dawley rats (220–250 g) at doses ranging from 10–50 mg/kg. The rats were subsequently placed in metabolic cages and urine was collected for 24 hours. The quantity of phosphonic acid excreted into urine was determined by HPLC analysis as described in Example G. In a separate study, urinary recovery was determined following intravenous (tail vein) administration of compound (in the case of the prodrugs, the appropriate parent phosphonic acid was administered i.v.).

[3] = Oral Absorption Determinations of Prodrugs in the Rat; details: normal fed rats; for % excreted i.p.: 30 mg/kg intraperitoneal; for % excreted i.p. / % excreted p.o.: parent compound 3.1 in 24 h urine; for % excreted p.o.: 30 mg/kg oral gavage; for % absorption: 30 mg/kg, urinary excretion oral vs intraperitoneal
[4] = Analysis of Drug Levels and Liver Accumulation in Rats; type: in vivo, rat; details: fasted rats, 10 mgs/kg i.v., one hour post injection; for concentration at 1 h: Sprague-Dawley, rat, iv, read-out: Plasma Conc.; for Plasma Conc. / concentration at 1 h: plasma
Method: The compound was dissolved in water and the solution adjusted to neutrality with NaOH. One hour post injection rats were anesthetized with halothane and a liver biopsy (approx. 1 g) was taken as well as a blood sample (2 ml) from the posterior vena cava. A heparin flushed syringe and needle were used for blood collection. The liver sample was immediately homogenized in ice-cold 10% perchloric acid (3 ml), centrifuged, and the supernatant neutralized with ⅓rd volume of 3 M KOH/3 M KHCO3. […] Plasma was prepared from the blood sample by centrifugation and extracted by addition of methanol to 60% (v/v). The methanolic extract was clarified by centrifugation and filtration and then analyzed by HPLC as described above.

[5] = Rattus norvegicus, iv, 10 mg/kg i.v.

CCc1sc(N)nc1C(=O)OCP(=O)(O)O [Compound 18.3, 2-amino-5-ethyl-4-phosphonomethoxycarbonylthiazole] showed an inhibition in vivo at 10 mg/kg (Fasted Rats; [5]) of 75%.

In the case of CC(C)Cc1sc(N)nc1-c1ccc(P2(=O)OCCC(c3cc(Cl)cc(Cl)c3)O2)o1 (stereo not shown) [Compound 19.48, 2-Amino-5-isobutyl-4-{2-[5-(1-(3,5-dichlorophenyl)-1,3-propyl)phosphono]furanyl}thiazole], the IC50 [1] is reported as 6500 nM, the “% Glucose Lowering (maximum)” value (Fasted Rat; dose 30 mg/kg, time point 2 h) is reported as 63% and the “% Oral bioavailability” value [2] is reported as 12%. For the same compound, the “% excreted i.p.” value [3] was 11.3%, the “% excreted p.o.” value [3] was 11.6% and the “% absorption” value [3] was 100%.

In the case of Nc1nc(-c2ccc(P(=O)(O)O)o2)c(-c2cccs2)s1 [Compound 6.3], the inhibition in vivo at 10 mg/kg (Fasted Rats; [5]) is reported as 24%.

In the case of CSc1[se]c(N)nc1-c1ccc(P(=O)(O)O)o1 [Compound 3.71, 2-Amino-5-methylthio-4-[2-(5-phosphono)furanyl]selenazole], the “i.v. Glucose Lowering, %” value (Fasted Rats; 10 mg/kg i.v.) is reported as 72%.

CCCSc1sc(N)nc1-c1ccc(P(=O)(O)O)o1 [Compound 3.58, 2-Amino-5-propylthio-4-[2-(5-phosphono)furanyl]thiazole hydrobromide] showed an IC50 ([1]; Hepatocyte) of 1200 nM and an inhibition in vivo at 10 mg/kg (Fasted Rats; [5]) of 82%.

In the case of Cc1nc(-c2ccc(P3(=O)OCCC(c4ccncc4)O3)o2)c(CC(C)C)s1 (stereo not shown) [Compound 19.17, 5-Isobutyl-2-methyl-4-{2-[5-(1-(4-pyridyl)-1,3-propyl)phosphono]furanyl}-thiazole], the “% Oral bioavailability” value [2] is reported as 16.2%.

With CCc1sc(N)nc1-c1ccc(P(=O)(O)O)o1 [Compound 3.21, 2-Amino-5-ethyl-4-[2-(5-phosphono)furanyl]thiazole] the “Plasma Conc.” value [4] was 25 ± 1 µM.

In the case of “2-Methyl-5-isobutyl-4-{2-[5-bis(thiobenzoylmethyl)phosphono]furanyl}thiazole [Compound 19.9]”, the “% Oral bioavailability” value [2] is reported as 18.5%.

In the case of CCOC(=O)CNP(=O)(Oc1ccccc1)c1ccc(-c2nc(N)sc2CC(C)C)o1 (stereo not shown) [Compound 31.8, 2-amino-5-isobutyl-4-{2-[5-(O-phenyl-N-ethoxycarbonylmethyl)phosphonamido]furanyl}thiazole], the IC50 [1] is reported as 3000 nM and the “% Oral bioavailability” value [2] is reported as 14%.

For Nc1ccc(C2CC2)c(-c2ccc(P(=O)(O)O)o2)n1 [Compound 15.20, 2-Amino-5-cyclopropyl-6-[2-(5-phosphono)furanyl]pyridine], the inhibition in vivo at 10 mg/kg (Fasted Rats; [5]) was 24%, the concentration at 1 h [4] was 66.3 ± 3.9 µM and the “Liver Conc.” value [4] was 13.1 ± 2.3 nmol/g.

For CCOC(=O)c1sc(N)nc1-c1ccc(P(=O)(O)O)o1 [Compound 3.25, 2-Amino-5-ethoxycarbonyl-4-[2-(5-phosphono)furanyl]thiazole], the inhibition in vivo at 10 mg/kg (Fasted Rats; [5]) was 76%.

In the case of CCc1cc(CC)c(-c2ccc(P(=O)(O)O)o2)nc1N [Compound 15.4, 2-amino-3,5-diethyl-6-[2-(5-phosphono)furanyl]pyridine], the melting point is reported as 217 to 218 °C.

With CCOC(=O)OCOP(=O)(OCOC(=O)OCC)c1ccc(-c2nc(N)sc2CC(C)C)o1 [Compound 20.9, 2-Amino-5-isobutyl-4-{-2-[5-bis(ethoxycarbonyloxymethyl)phosphono]-furanyl}thiazole] the IC50 [1] was 2200 nM, the “% Glucose Lowering (maximum)” value (Fasted Rat; dose 90 mg/kg, time point 3 h) was 67% and the “% Oral bioavailability” value [2] was 17.4%.

For CC(C)Cc1sc(N)nc1-c1ccc(P(=O)(OCOC(=O)C(C)(C)C)OCOC(=O)C(C)(C)C)o1 [Compound 20.4, 2-Amino-5-isobutyl-4-{2-[5-(dipivaloyloxymethyl)phosphono]furanyl}thiazole], the “% Oral bioavailability” value [2] was 11%.

CC(C)Cc1sc(N)nc1-c1ccc(P2(=O)OCCC(c3ccncc3)O2)o1 (stereo not shown) [Compound 19.18, 2-Amino-5-isobutyl-4-[2-{5-[1-(4-pyridyl)-propan-1,3-yl]phosphonol}furanyl)-thiazole] showed an IC50 [1] of 10000 nM.

In the case of CC(C)Cc1sc(N)nc1-c1ccc(P2(=O)OCCC(c3ccc(F)c(Br)c3)O2)o1 (stereo not shown) [Compound 19.42, 2-Amino-5-isobutyl-4-{2-[5-(1-(4-fluoro-3-bromophenyl)-1,3-propyl)phosphono]furanyl}thiazole], the “% Glucose Lowering (maximum)” value (Fasted Rat; dose 30 mg/kg, time point 3 h) is reported as 26%, the “% Oral bioavailability” value [2] is reported as 10% and the “% excreted i.p.” value [3] is reported as 15.4%. The “% excreted p.o.” value [3] was 8.1% and the “% absorption” value [3] was 52%.

Nc1nc(C(=O)OCP(=O)(O)O)c(Br)s1 [Compound 18.2, 2-amino-5-bromo-4-phosphonomethoxycarbonylthiazole] gave an inhibition in vivo at 10 mg/kg (Fasted Rats; [5]) of 80%.

With Cc1nc(-c2ccc(P(=O)(OCOC(=O)C(C)(C)C)OCOC(=O)C(C)(C)C)o2)c(CC(C)C)s1 [Compound 20.3, 2-Methyl-5-isobutyl-4-{2-[5-(dipivaloyloxymethyl)phosphono]furanyl}thiazole] the “% Oral bioavailability” value [2] was 17.5%.

For CCCc1oc(N)nc1-c1ccc(P(=O)(O)O)o1 [Compound 10.2, 2-Amino-5-propyl-4-[2-(5-phosphono)furanyl]oxazole], the concentration at 1 h [4] was 22 ± 1.5 µM, the “% Glucose Lowering (maximum)” value (Fasted Rat; dose 90 mg/kg, time point 3 h) was 36% and the bioavailability ([2]; Sprague-Dawley, rat, urine) was 22%.

With CC(C)Cc1sc(Br)nc1-c1ccc(P(=O)(O)O)o1 [Compound 5.1, 2-bromo-5-isobutyl-4-[2-(5-phosphono)furanyl]thiazole] the “Liver Conc.” value [4] was 6.7 ± 0.7 nmol/g and the “Plasma Conc.” value [4] was 100 ± 5.7 µM.

For COC(=O)C(C)NP(=O)(Oc1ccccc1)c1ccc(-c2nc(N)sc2CC(C)C)o1 (stereo not shown) [Compound 31.6, 2-amino-5-isobutyl-4-{2-[5-(O-phenyl-N-(1-methoxycarbonyl)ethyl)phosphonamido]furanyl}thiazole], the IC50 [1] was 2300 nM, the “% Glucose Lowering (maximum)” value (Fasted Rat; dose 10 mg/kg, time point 3 h) was 60% and the “% Oral bioavailability” value [2] was 19%.

Cc1ccc(OCP(=O)(O)O)c2nc(N)sc12 [Compound 35.3, 2-Amino-4-phosphonomethoxy-7-methylbenzothiazole] gave an inhibition in vivo at 10 mg/kg (Fasted Rats; [5]) of 65%.

Work on CCCSc1oc(N)nc1-c1ccc(P(=O)(O)O)o1 [Compound 10.43, 2-Amino-5-propylthio-4-[2-(5-phosphono)furanyl]oxazole] yielded an inhibition in vivo at 10 mg/kg (Fasted Rats; [5]) of 61%.

In the case of Cc1nc(-c2ccc(P(=O)(OCOC(=O)C(C)(C)C)OCOC(=O)C(C)(C)C)o2)cs1 [Compound 20.1, 2-methyl-4-[2-(5-dipivaloyloxymethylphosphono)furanyl]-thiazole], the “% Oral bioavailability” value [2] is reported as 46%.

With Nc1nc(-c2ccc(P(=O)(O)O)o2)c(C2CC2)s1 [Compound 3.27, 2-Amino-5-cyclopropyl-4-[2-(5-phosphono)furanyl]thiazole] the “% Glucose Lowering (maximum)” value (Fasted Rat; dose 60 mg/kg, time point 3 h) was 61% and the “% Oral bioavailability” value [2] was 32%.

For CC(C)Cc1sc(N)nc1-c1ccc(P2(=O)OCCC(c3cccc(Cl)c3)O2)o1 (stereo not shown) [Compound 19.46, 2-Amino-5-isobutyl-4-{2-[5-(1-(3-chlorophenyl)-1,3-propyl)phosphono]furanyl}thiazole], the “% Glucose Lowering (maximum)” value (Fasted Rat; dose 30 mg/kg, time point 2 h) was 53%.

Cc1nc(-c2ccc(P(=O)(O)O)o2)c(CC(C)C)s1 [Compound 3.2, 2-Methyl-5-isobutyl4-[2-(5-phosphono)furanyl]thiazole] gave an inhibition in vivo at 30 mg/kg (Fasted Rats; Rattus norvegicus, iv, 30 mg/kg i.v.) of 55%.

In the case of CCc1c(SC#N)cc(OCP(=O)(O)O)c2nc(N)sc12 [Compound 41.1, 2-amino-7-ethyl-6-thiocyano-4-phosphonomethoxybenzothiazole], the inhibition in vivo at 10 mg/kg (Fasted Rats; [5]) is reported as 80%.
